In patent US6281250A, “Retinyl ethers, derivatives and analogues and inhibition of breast carcinogenesis” (Southern Research Institute, priority 1999, dated 2001):
“Also recorded” adds a separate entry of the source. Where two headings read alike, the source gives them in different places.

Tests used:
[1] = system: TPA-induced ornithine decarboxylase (ODC); assay: Inhibition of TPA-induced ornithine decarboxylase (ODC) in mouse skin; format: in vivo
From the text: Earlier, several alkyl, alkenyl, or alkynyl retinyl ethers had been assayed for inhibition of TPA-induced ornithine decarboxylase (ODC) in mouse skin and for the suppression of DMBA-initiated and TPA-promoted mouse-skin papillomas (Shealy et al., 1997). In comparison with control groups, these retinyl ethers were ineffective. Only a few representatives of the benzyl ethers were selected for tests in these assays. […] Because of these and the earlier results (Shealy et al., 1997), testing of retinyl benzyl ethers in the ODC and papilloma assays was discontinued.

[2] = Toxicity observations in rats receiving retinoids in feed; format: in vivo, rat (Sprague-Dawley); conditions: administered in feed, listed as RTMBE
Protocol: Retinoid diet mixtures were stored at 4° C. […] The animals were palpated for mammary tumors 2×/week. […] Also, five rats/group had complete necropsies performed.

[3] = target: T1, cellular retinol-binding protein (CRBP) (Rattus norvegicus, UniProt P02696); assay: Binding to cellular retinol-binding protein (CRBP): inhibition of [3H]retinol binding, sucrose density-gradient sedimentation
T1 construct: portions of rat testes cytosol (1 mg protein) were incubated; from tissue; host or cells: rat testes cytosol
T1 sequence (P02696 1-135): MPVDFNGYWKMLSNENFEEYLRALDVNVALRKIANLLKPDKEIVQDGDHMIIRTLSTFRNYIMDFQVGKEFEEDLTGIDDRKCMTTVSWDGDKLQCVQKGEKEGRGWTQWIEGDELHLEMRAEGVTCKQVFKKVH
Protocol: Binding affinities of the retinyl ethers for CRBP were determined by sucrose, density-gradient, sedimentation analysis as described before (Sani et al., 1980). Briefly, portions of rat testes cytosol (1 mg protein) were incubated with [^3 H]retinol (50 pmol) in the presence or absence of a 150-fold molar excess of unlabeled retinol or the test retinoids. The preparations after dialysis were analyzed by 5-20% sucrose density gradient sedimentation. For measuring the competitive binding of the unlabeled retinoids, inhibition of [^3 H]retinol binding to CRBP by unlabeled retinol is regarded as 100%. The mean and standard deviation calculated from the relative inhibitions obtained from multiple determinations were used as the relative binding affinities of the various retinyl ethers.
The group of retinyl benzyl ethers has now been evaluated for binding to CRBP. Binding to CRBP, as defined for Table I, at approximately 60% or higher was rated as strong; at 40-60%, as moderate; at 20-40%, as low.
^a Per cent inhibition of binding of tritiated retinol to CRBP by a
150-fold molar excess of the unlabelled test retinoid (Sani et al., 1980,

[4] = system: MNU-induced mammary cancer; assay: 180-day study of RTMBE for suppression of MNU-induced mammary carcinogenesis (Expt. 3); format: in vivo, rat (female Sprague-Dawley); conditions: second, confirmatory experiment; 2 mmol/kg of diet, 180 days
[5] = Stability of retinyl ethers in storage and in solution; format: physicochemical
[6] = Mammary tissue-to-plasma concentration after intravenous dosing; format: in vivo, rat (female Sprague-Dawley); conditions: rat, 5 mg/kg i.v., after 24 hr, read-out: ratio of mammary tissue-to-plasma concentrations
in vivo = assay: in vivo
How it was run: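 Mice dosed by gavage in corn oil for 28-29 days, first at equimicromolar doses at three levels, then with retinyl benzyl ethers at higher doses. Body weight tracked along with hypervitaminosis A signs (alopecia, scaly skin, limping).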

[7] = system: MNU-induced mammary cancer; conditions: for Adenocarcinomas, % of Control Group A / Adenocarcinomas, Avg. No. Per Rat / reduction of average number of tumors per rat: 160 days
Protocol: Briefly, diets were prepared by mixing each retinoid with Wayne meal or Teklad (4%) mash diet. For each kg of diet, the retinoid was dissolved in 12 g ethanol, 19 g trioctanoin, 0.05 mL Tenox 20, and 0.05 mL d,1-alpha tocopherol prior to incorporation into the feed using a Patterson-Kelly blender. Retinoid diet mixtures were stored at 4° C. Portions of each retinoid-diet mixture were analyzed for the added retinoid to ensure homogeneity. Female Sprague-Dawley rats received an i.v. injection of MNU (45 mg/kg body weight) at 50 days of age. Diet supplementation with retinoids was initiated three days after MNU. A group of rats receiving retinyl acetate (1 mmol/kg of diet) served as the positive control. The animals were palpated for mammary tumors 2×/week. At termination of the study, mammary tumors were processed for histological classification. Also, five rats/group had complete necropsies performed. The tissues were examined histologically for pathological lesions as additional toxicological evaluation. Extracts of the liver and mammary gland (5 rats/group) were analyzed by HPLC for retinyl palmitate and/or for the dosed retinoid. Statistical analyses of cancer incidence and latency were determined using logrank analysis, while differences in cancer multiplicity were determined employing the Armitage test.
In this assay, described previously (Grubbs et al., 1995; Shealy el al., 1997), a retinoid dissolved in a solution (vehicle) consisting of ethanol and trioctanoin plus small amounts of Tenox 20 and α-tocopherol was mixed with feed, and the mixture was fed to rats after intravenous injection of MNU.
^a Female Sprague-Dawley rats (10/group) received one i.v. injection of
MNU (45 mg/kg of body weight) at 50 days of age. Diet supplementation with
retinoids was initiated at 52 days of age and was continued until the
study was terminated 160 days after administration of MNU.
^b Treatment with retinoids is stated in millimoles of retinoid per
kilogram of diet (Wayne meal).

[8] = system: serum retinol-binding protein (RBP); assay: Binding to serum retinol-binding protein (RBP): inhibition of [3H]retinol binding; conditions: % of that of retinol
[9] = system: NADPH-requiring enzymes in rat liver microsomes; assay: Conversion of retinyl ethers to retinol by rat liver microsomal enzymes; format: in vitro ADME; conditions: in vitro
Protocol: Because it was postulated, as stated above, that new retinyl ethers might not be converted by mircrosomal oxidases to retinol, RTMBE and 3a-i were tested in vitro in the same way.

[10] = Analysis of feed samples for stability of retinyl ethers; format: physicochemical
Protocol: The 2,5-dimethoxybenzyl (3b) and 4-methoxybenzyl (3e) ethers were tested in the same way in a 90-day study. […] The 2,5-dimethybenzyl (3c) and the 2,3-dimethoxybenzyl (3h) ethers, together with RTMBE for comparison, were likewise assayed according to the same methodology. Prior to the beginning of this study, specimens of the retinoid-diet mixtures were placed under the conditions that were employed during the storage and feeding of RTMBE, 3c, and 3h. The specimens were extracted with butanol, and the extracts were analyzed by HPLC. […] Testing of 3c and 3h was discontinued, but the RTMBE study was continued until the duration of the study was 180 days (Table 6). The results were similar to those of Experiment 1 (Table 3). The averages of the number of tumors per rat were reduced by 32-35%; in addition, the averages of the tumor weights per rat was 56-70% lower than the average tumor burden of the control group.
^a The values in each column are % recoveries of the retinyl ether from
mixtures of the ether with feed samples and are based on the actual
amounts of the ether that were added.
^b The samples that were analyzed were mixtures of vehicle, retinoid,
and feed (prepared as described by Shealy et al., 1997).
^c Food cups were placed in animal cages within the room that housed
the rats; therefore, temperature (22° C.) and lighting were
identical to those in use during the in vivo tests.

[11] = 7 days, 25.5±1.5° C., protected

With `COc1cc(COC/C=C(C)/C=C/C=C(C)/C=C/C2=C(C)CCCC2(C)C)cc(OC)c1OC` [Compound 2, Retinyl 3,4,5-Trimethoxybenzyl Ether] the “activity in ODC assay” value [1] was “not active in the ODC assay”, the “toxicity in MNU-mammary cancer studies” value [2] was “Overt toxicity was not evident; also recorded: not toxic in the mammary carcinogenesis studies” and the “Binding to CRBP, rating” value ([3]; 150-fold molar excess) was “strong or moderate binding”. For the same molecule, the “binding to CRBP, in words” value ([3]; 150-fold molar excess) was “bind to CRBP”, the “Percent Inhibition of [3H] Retinol Binding (CRBP Assay)” value ([3]; 150-fold molar excess of unlabelled test retinoid, rat testes cytosol) was 66 ± 12% and the “reduction of adenocarcinoma formation, compared with retinyl acetate” value [4] was “somewhat more effectively than retinyl acetate”. The stability on storage ([5]; 5 years at -20° C., inert atmosphere) was “unchanged”, the “stability in DMSO” value [5, 11] was “changed very little” and the “stability in absolute ethanol” value [5, 11] was “practically unchanged”. For the same molecule, the remaining at 43830 h ([5]; inert atmosphere storage, 5 years at -20° C., inert atmosphere, read-out: HPLC on re-analysis after storage) was 99.2%, the Kp at 24 h [6] was 183 ± 77 and the NOAEL (in vivo; mouse, in vivo, po) was 249 mg/kg/day. The “Toxic Dose” value (in vivo; oral gavage in corn oil, 28-29 days) was > 249 mg/kg day, the “clinical toxicity (alopecia, scaly skin, limping)” value (in vivo; oral gavage, up to highest dose (RTMBE and RMoBE-4: Expt. 2)) was “No evidence of clinical toxicity” and the “Adenocarcinomas, % of Control Group A” value ([7]; 0.5 mmol/kg diet) was 100%. The “Adenocarcinomas, Avg. No. Per Rat” value ([7]; 0.5 mmol/kg diet) was 6.5, the “Adenocarcinomas, % of Control Group A” value ([7]; 1 mmol/kg diet) was 55% and the “Adenocarcinomas, Avg. No. Per Rat” value ([7]; 1 mmol/kg diet) was 3.6. For the same molecule, the “reduction of average number of tumors per rat” value ([7]; 1 mmol/kg feed) was 46%, the “Adenocarcinomas, % of Control Group A” value ([7]; 2 mmol/kg diet) was 54% and the “Adenocarcinomas, Avg. No. Per Rat” value ([7]; 2 mmol/kg diet) was 3.5. For the same molecule, the “reduction of average number of tumors per rat” value ([7]; 2 mmol/kg feed) was 45%, the “prevention / suppression of mammary cancer, general statement” value ([7]; animal model / in vivo initial study) was “suppress mammary cancer in vivo” and the “inhibition of [3H] retinol-binding (RBP), relative to that of retinol” value [8] was 70%. For the same molecule, the conversion to retinol [9] was “not detectable”, the “% recovery of retinyl ether from feed” value ([10]; After 1 week of 4° C., 10080 min) was 101% and the “% recovery of retinyl ether from feed” value ([10]; After 1 day in food cup (22° C.)) was 97%. For the same molecule, the “% recovery of retinyl ether from feed” value ([10]; After 2 days in food cup (22° C.)) was 104%, the “% recovery of retinyl ether from feed” value ([10]; After 3 days in food cup (22° C.)) was 97.5% and the “% recovery of retinyl ether from feed” value ([10]; Immediately After Mixing) was 99.8%. The “% recovery of retinyl ether” value ([10]; Vehicle + Retinoid (only)) was 97% and the “stability in diet mixtures” value ([10]; conditions of storage and feeding in animal rooms) was “essentially unchanged”.
